Assay results reported in publication PMC10618445, “Eucalyptus torquata L. flowers: a comprehensive study reporting their metabolites profiling and anti-gouty arthritis potential” (Scientific Reports, 2023).
Values belong to the compound of their own block, whether it stands above or below them.

Assays:
[1] = Ferric reducing power assay (FRAP); conditions: mean ± SD, triplicate
Experimental: DPPH radical scavenging, ABTS radical scavenging and FRAP assays were done according to Dudonne et al.[19] method minor modifications. The details are mentioned in the supplementary file. The ferric reducing power of the extract was determined using the method reported previously by Dudonne, et al., 2009 [1]. The reduction is monitored by measuring the change of absorbance at 593 nm. […] A standard curve was prepared using various concentrations of FeSO4 .7H2O. All solutions were used on the day of preparation. A 100 µL of the sample solution and 300 μL of deionized water were added to 3 mL of freshly prepared FRAP reagent. The reaction mixture was incubated in a water bath for 30 min at 37 °C. The difference between sample absorbance and blank absorbance was calculated and used to calculate the FRAP value. All measurements were done in triplicate and the EC50 was calculated. Ascorbic acid is used as standard.

[2] = ABTS radical scavenging assay; conditions: mean ± SD, triplicate
Experimental: DPPH radical scavenging, ABTS radical scavenging and FRAP assays were done according to Dudonne et al.[19] method minor modifications. The details are mentioned in the supplementary file. Briefly, 200 µL of the reaction mixture containing 10 µL extract/ standard at different concentrations (0.1575 - 1 mg/mL) was added to 2,2′-Azino-bis(3-ethylbenzothiazoline-6-sulfonic acid (ABTS) solution (190 µL) then measured at 734 nm in 96 well-plates. The ABTS solution was composed as follows; 5 mL of 14 mM ABTS dissolved in methanol added to 5 mL solution of 4.9 mM potassium persulfate, and subsequently stored for 16 h at room temperature in dark. This solution was diluted with methanol till the absorbance was 0.700.

[3] = DPPH radical scavenging assay; conditions: mean ± SD, triplicate
Experimental: DPPH radical scavenging, ABTS radical scavenging and FRAP assays were done according to Dudonne et al.[19] method minor modifications. The details are mentioned in the supplementary file. Briefly, 20 μL of the diluted concentrations of ETME/ standard (0.1575 - 1 mg/mL) were added to 200 μL of 2,2-diphenyl-1-picrylhydrazyl (DPPH) in a 96 well-plate and the absorbance was measured at 517 nm after incubation for 30 min [1] using ascorbic acid as standard. […] was determined using the equation; [(Ac – As) / Ac] × 100. In which, Ac was the control absorbance (DPPH solution without the tested sample) while As was the sample absorbance (DPPH solution in addition to the extract or standard).

[4] = tested on: U937 human monocytes; assay: Histamine release inhibitory activity (PMA-treated cells, ELISA); type: cell-based; conditions: 20 nM PMA, 1 h, mean ± SD
Experimental: U937 human monocytes (ATCC, Manassas, VA, USA) were used to study the effect of the extract on histamine release. U937 cells (50,000 cells) were plated in a 96-well plate and treated with various concentration (1000–7.81 µg/mL) of the extract, in presence or absence of 20 nM phorbol myristate acetate (PMA) for 1 h. The cell culture supernatants collected from either untreated control or treated cultures were centrifuged at 10,000 g for 5 min at 4 °C and assessed for the released histamine by the commercially available ELISA kit. Diclofenac was used as the positive control.

[5] = tested on: protease; assay: Protease (proteinase) inhibitory activity; type: biochemical; conditions: mean ± SD, triplicate
Experimental: (§1) Albumin denaturation inhibition was evaluated using the previously described method. Membrane stabilization and proteinase inhibitory potentials were evaluated using the previously reported method. Diclofenac was used as the reference drug. All the experiments were performed in triplicate.

[6] = tested on: red blood cell membranes; assay: Membrane stabilization; type: cell-based; conditions: mean ± SD, triplicate
Experimental: as §1
Denaturation of tissue proteins is well documented in the pathogenesis of inflammatory events like arthritis. The protection against protein denaturation is one of NSAIDs mechanisms of action. In addition, red blood cell hemolysis inhibition may provide insights into the process of inflammation. Stabilization of the red blood cell membranes may delay or prevent the lysis and the consequent cytoplasmic contents release and the inflammatory response. So, plants that can interfere with these responses could be very useful for developing novel anti-arthritic drugs. Natural extracts from other Eucalyptus species produced similar albumin denaturation and cell membrane stabilization activities including E. obliqua leaves, E. sideroxylon bark[9] and E. globulus leaves.

[7] = tested on: 5-lipoxygenase (5-LOX); assay: 5-lipoxygenase inhibitory assay (lipoxygenase inhibitor screening kit); type: biochemical; conditions: mean ± SD, triplicate
Source text: (§2) Methanol, DPPH (2,2-diphenyl-1-picrylhydrazyl), ABTS (2,2′-Azino-bis (3-ethylbenzothiazoline-6-sulfonic acid)), TPTZ (2,4,6-tri(2-pyridyl)-s-triazine), ascorbic acid, hyaluronic acid (human umbilical cord), sodium hydroxide, hyaluronidase (bovine testes), calcium chloride, p-dimethylaminobenzaldehyde (PDMAB), and sodium borate were purchased from Sigma-Aldrich (USA). COX (ovine) and LOX inhibitor screening assay kits (Cayman Chemical Company, MI, USA), 96-well cell culture plate (Corning Life Sciences, Lowell, MA, USA), PMA (Sigma-Aldrich, St. Luis, MO, USA), and histamine release assay kit (SPI-Bio, France) were used.
The COX inhibitory activity was assayed using Cayman colorimetric COX (ovine) inhibitor screening assay kit, according to the manufacturer’s instructions. The selectivity index (S.I.) was then calculated as IC50 (COX-1)/IC50 (COX-2). In vitro 5-lipoxygenase (5-LOX) inhibitory assay was carried out using lipoxygenase inhibitor screening assay kit, according to the manufacturer’s instructions. Diclofenac sodium was used as a reference drug.

[8] = tested on: tyrosinase; assay: Tyrosinase inhibition assay with L-DOPA as substrate; type: biochemical; conditions: mean ± SD
Experimental: Tyrosinase inhibition assay was performed with L-DOPA as substrate adopting the previously described method. Detailed procedures are described in the supplementary file.
Tyrosinase inhibition assay was performed with L-DOPA as substrate adopting the method reported in [3]. In a 96-plate, 685 μL of phosphate buffer (0.05 M, pH 6.5), 15 μL of tyrosinase enzyme (2500 U /mL), 200 μL of ETME (7.81–1000 µg/mL) and 100 μL of 5 mM/L L-DOPA were added. The absorbance was immediately monitored at 492 nm. Kojic acid was used as the positive control. The assay was made in triplicate. The percentage inhibition was calculated as follows: % of inhibition = (Acontrol/Atested sample)/ Acontrol) x 100. Where, Acontrol is the absorbance without the addition of the inhibitor and Asample is the absorbance after adding the standard.

[9] = target: xanthine oxidase (XO) (Bos taurus, UniProt P80457); assay: Xanthine oxidase (XO) inhibitory activity; type: biochemical; conditions: mean ± SD, triplicate; read-out: Xanthine oxidase IC50/EC50 (converted)
Sequence of xanthine oxidase (XO) (P80457 whole entry): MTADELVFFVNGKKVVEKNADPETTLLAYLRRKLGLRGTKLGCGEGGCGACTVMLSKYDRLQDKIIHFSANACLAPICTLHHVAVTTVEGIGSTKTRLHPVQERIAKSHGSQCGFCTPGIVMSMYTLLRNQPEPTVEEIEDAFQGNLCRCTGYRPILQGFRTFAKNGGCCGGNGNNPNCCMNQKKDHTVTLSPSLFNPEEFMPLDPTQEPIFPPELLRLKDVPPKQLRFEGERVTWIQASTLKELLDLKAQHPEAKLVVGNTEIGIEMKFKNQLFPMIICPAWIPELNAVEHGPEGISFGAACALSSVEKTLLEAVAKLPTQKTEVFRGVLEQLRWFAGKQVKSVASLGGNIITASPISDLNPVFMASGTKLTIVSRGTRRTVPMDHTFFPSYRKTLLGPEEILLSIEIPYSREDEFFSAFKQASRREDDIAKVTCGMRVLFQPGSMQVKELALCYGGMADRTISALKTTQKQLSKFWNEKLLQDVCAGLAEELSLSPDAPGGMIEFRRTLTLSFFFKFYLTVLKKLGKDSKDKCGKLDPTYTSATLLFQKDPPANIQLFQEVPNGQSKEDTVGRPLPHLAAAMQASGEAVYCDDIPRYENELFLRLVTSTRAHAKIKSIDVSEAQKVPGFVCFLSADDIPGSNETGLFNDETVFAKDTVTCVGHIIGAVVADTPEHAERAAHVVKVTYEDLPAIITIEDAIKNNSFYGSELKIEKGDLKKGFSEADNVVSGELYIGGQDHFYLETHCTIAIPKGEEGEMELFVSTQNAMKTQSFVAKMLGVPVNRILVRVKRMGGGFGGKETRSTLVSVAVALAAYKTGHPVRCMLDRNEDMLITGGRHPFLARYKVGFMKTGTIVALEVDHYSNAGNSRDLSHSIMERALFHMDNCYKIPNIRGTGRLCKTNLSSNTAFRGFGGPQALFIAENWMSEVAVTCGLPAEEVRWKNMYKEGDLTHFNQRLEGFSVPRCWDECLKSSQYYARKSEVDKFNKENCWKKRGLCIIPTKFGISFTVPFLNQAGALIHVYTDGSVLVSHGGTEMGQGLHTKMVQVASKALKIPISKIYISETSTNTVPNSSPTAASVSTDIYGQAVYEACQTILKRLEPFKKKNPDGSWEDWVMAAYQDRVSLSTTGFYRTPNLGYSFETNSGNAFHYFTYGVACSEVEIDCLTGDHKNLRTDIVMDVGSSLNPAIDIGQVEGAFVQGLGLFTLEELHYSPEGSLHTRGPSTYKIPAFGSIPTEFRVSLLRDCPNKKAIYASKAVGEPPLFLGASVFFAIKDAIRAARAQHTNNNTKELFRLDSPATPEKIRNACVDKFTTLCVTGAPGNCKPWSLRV
Experimental: The XO inhibitory activity was assayed following the protocol reported in[22]. Detailed procedures are described in the supplementary file. The XO inhibitory activity was assayed following the protocol reported in [2]. Five hundred µL of different concentrations of ETME/ standard (10- 100 µg/mL) were added to the enzyme solution (1.3 mL of phosphate buffer at concentration of 65 mM and pH 7.4 containing 0.28 U/mL of XO). Then the mixture was incubated for 10 min at 30 ℃. Next, 1.4 mL of the substrate xanthine (0.6 mM) was added to the mixture. The absorbance was measured at every minute for 10 min at 295 nm. Allopurinol was used as the standard drug. The percentage inhibition of XO was calculated as: % inhibition = (1 – Absorbance of sample/ Absorbance of blank) x 100. The IC50 value was calculated from the calibration curve.

[10] = tested on: hyaluronidase (bovine testes); assay: Hyaluronidase inhibitory activity; type: biochemical; conditions: mean ± SD, triplicate
Source text: as §2
Hyaluronidase inhibitory activity of ETME was evaluated spectrophotometrically as reported by Perera et al.[24] with minor modifications. Detailed procedures are described in the supplementary file.
Hyaluronidase inhibitory activity of ETME was evaluated spectrophotometrically as reported by Perera et al., 2018 with minor modifications. […]. The percentage of enzyme inhibition was calculated as follows:
% of inhibition = (Acontrol/Atested sample)/ Acontrol) x 100.
Where Acontrol is the absorbance without addition of the inhibitor and Asample is the absorbance after adding the extract/standard. The IC50 value, the concentration giving 50% inhibition of hyaluronidase activity, was determined by interpolation using the concentration-response curves. […]

SMILES: O=C1O[C@H]([C@@H](O)CO)C(O)=C1O [Ascorbic acid, ascorbic acid]
FRAP IC50/EC50 [1]: 3.9 ± 1.9 µg/mL | ABTS IC50/EC50 [2]: 21.4 ± 1.6 µg/mL | DPPH IC50/EC50 [3]: 2.2 ± 1.6 µg/mL

SMILES: O=C(O)Cc1ccccc1Nc1c(Cl)cccc1Cl [Diclofenac]
Histamine release IC50/EC50 [4]: 17.94 ± 1.4 µg/mL | Protease IC50/EC50 [5]: 25.14 ± 1.2 µg/mL | Membrane stabilization IC50/EC50 [6]: 17.02 ± 1.3 µg/mL

SMILES: O=C([O-])CC([S-])C(=O)[O-].[Au+].[Na+].[Na+] (stereo not shown) [Sodium aurothiomalate]
Hyaluronidase IC50/EC50 [10]: 20.03 ± 0.96 µg/mL

Now from value to compound:

LOX IC50/EC50 [7]: 23.4 ± 0.83 µg/mL
SMILES: COc1ccc2c(c1)c(CC(=O)O)c(C)n2C(=O)c1ccc(Cl)cc1 [Indomethacin]

Tyrosinase IC50/EC50 [8]: 52.0 ± 0.98 µg/mL
SMILES: O=c1cc(CO)occ1O [Kojic acid]

IC50 [9]: 96.6 µM
SMILES: O=c1[nH]c(=O)c2c[nH]nc2[nH]1 [Oxypurinol]
